Laboratory results: PubChem BioAssay (NCI)
Where “and” joins values, the source holds several entries; their conditions need not be identical. Equal entries are not always repeated.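 All cell lines were grown in 96-well plates and treated with compound for 48 hours. GI50 marks 50% less growth. TGI denotes the concentration required for complete inhibition of growth.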

How the values were obtained:
Test in all cases: DTP human tumour cell line panel, 48 h
[1] = test system: EKVX NSCLC
[2] = test system: MOLT-4 leukemia
[3] = test system: U251 CNS
[4] = test system: HCC-2998 colon
[5] = test system: PC-3 prostate
[6] = test system: SW-620 colon
[7] = test system: OVCAR-8 ovarian
[8] = test system: NCI-H460 lung
[9] = test system: TK-10 renal
[10] = test system: MDA-MB-231 breast

| Compound | GI50 [1] | TGI [1] | GI50 [2] | TGI [2] | GI50 [3] | TGI [3] | GI50 [4] | TGI [4] | GI50 [5] | TGI [5] | GI50 [6] | TGI [6] | GI50 [7] | TGI [7] | GI50 [8] | TGI [8] | GI50 [9] | TGI [9] | GI50 [10] | TGI [10] |
| --- | --- | --- | --- | --- | --- | --- | --- | --- | --- | --- | --- | --- | --- | --- | --- | --- | --- | --- | --- | --- |
| CC(C)(S)C(N)C(=O)O (stereo not drawn) | 1190 µM | 3600 µM and > 100 µM | 3040 µM | > 5000 µM | 1780 µM | > 5000 µM | 1450 µM | 4340 µM | 1320 µM | > 5000 µM | 2220 µM | > 5000 µM | 3450 µM | > 5000 µM | 937 µM | 2730 µM and > 100 µM | 2610 µM | > 5000 µM | 2660 µM | > 5000 µM |
| CN(CCO)c1ccc(N2Cc3ccccc3OC3=C2C(=O)c2c(O)ccc(O)c2C3=O)cn1 | 0.284 µM | 1.45 µM | 0.135 µM | 1.19 µM | 0.284 µM | 0.82 µM | 0.249 µM | 0.608 µM | 0.296 µM | 0.888 µM | 0.0728 µM | 0.328 µM | 0.307 µM | 3.49 µM | 0.355 µM | 1.35 µM | 0.248 µM | 0.632 µM | 0.221 µM | 0.679 µM |
| C1=C\COCc2cc(ccc2OCCN2CCCC2)Nc2nccc(n2)-c2cccc(c2)COC/1 | 2.76 µM | 7.73 µM | 1.33 µM | 4.9 µM | 2.49 µM | 5.21 µM | 2.3 µM | 5.37 µM | 1.61 µM | 5.43 µM | 1.48 µM | 6.07 µM | 3.22 µM | 7.32 µM | 1.39 µM | 5.12 µM | 3.33 µM | 5.79 µM | 1.92 µM | 5.61 µM |
| O=C(c1ccc(/C=C/c2n[nH]c3ccccc23)cc1)N1CCNCC1 | > 10 µM and 8.5 µM | > 10 µM and 34.6 µM | 2.26 µM and 2.27 µM | 5.79 µM and 36.3 µM | 1.81 µM and 12.2 µM | 3.33 µM and 27.2 µM | > 10 µM and 12.1 µM | > 10 µM and 34.1 µM | 5.02 µM and 3.12 µM | > 10 µM and 35.8 µM | 1.96 µM and 1.47 µM | 4.14 µM and 10.8 µM | > 10 µM and 14.1 µM | > 10 µM and 34.4 µM | 1.87 µM and 1.09 µM | 3.58 µM and 12.7 µM | > 10 µM and 5.29 µM | > 10 µM and 20.2 µM | 6.04 µM and 3.62 µM | > 10 µM and 18 µM |
| O=C(Nc1ccc(F)cc1)c1cc(S(=O)(=O)Nc2nc3ccccc3o2)c(SCc2ccccc2)cc1Cl | 17.1 µM | 34 µM | 19.5 µM | 52.4 µM | 17.3 µM | 31.7 µM | 18.4 µM | 32.6 µM | 24.4 µM | 53.5 µM | 17.6 µM | 33.3 µM | 17.7 µM | 36 µM | 19.1 µM | 43.5 µM | 16.4 µM | 31.5 µM | 14.5 µM | 29.5 µM |
| CC[C@H]1CN2CCc3cc(OC)c(OC)cc3[C@@H]2C[C@@H]1C[C@H]1NCCc2c1[nH]c1ccc(O)cc21 | 0.0409 µM | 0.401 µM and 0.125 µM | 0.0117 µM and 0.0272 µM |  | 0.0222 µM and 0.0255 µM | 0.0702 µM and 0.075 µM and 0.154 µM | 0.0229 µM and 0.0287 µM | 0.0568 µM and 0.0856 µM and 0.0758 µM | 0.0345 µM | 0.814 µM | 0.0286 µM and 0.0339 µM |  | 0.0323 µM and 0.0377 µM |  | 0.0252 µM and 0.0398 µM | 0.0912 µM and 0.395 µM and 0.0422 µM | 0.0943 µM | 0.277 µM and 0.875 µM and 0.728 µM | 0.0153 µM | 0.0483 µM |
| O=C1NC(=O)/C(=C\c2ccccc2)C2=C1CCCC2 | 14.3 µM | 29.5 µM | 2.77 µM | 7.73 µM | 4.82 µM | 16.2 µM | 7.46 µM | 14 µM | 6.36 µM | 35.5 µM | 2.37 µM | 6.94 µM | 9.92 µM | 41.1 µM | 16.3 µM | 36 µM | 12 µM | 25.3 µM | 13.2 µM | 26.4 µM |
| O=C1NC(=O)C(c2cccc([N+](=O)[O-])c2)=C1Nc1cc(Cl)c(O)c(Cl)c1 | > 25 µM | > 25 µM | > 25 µM | > 25 µM | > 25 µM | > 25 µM | > 25 µM | > 25 µM | > 25 µM | > 25 µM | > 25 µM | > 25 µM | > 25 µM | > 25 µM | > 23.4 µM | > 25 µM | > 17.7 µM | > 25 µM | > 25 µM | > 25 µM |
| O[C@H](c1cc(C(F)(F)F)nc2c(C(F)(F)F)cccc12)[C@@H]1CCCCN1 | 4.32 µM | 17.3 µM | 3.51 µM | 11.1 µM | 3.05 µM | 8.38 µM | 1.85 µM | 4.13 µM | 2.08 µM | 5.79 µM | 2.05 µM | 4.52 µM | 5.11 µM | 14.7 µM | 2.28 µM | 5.28 µM | 2.85 µM | 10.4 µM | 1.78 µM | 4.08 µM |
| CC(=O)Oc1ccccc1C(=O)Nc1ncc([N+](=O)[O-])s1 | 2.66 µM | > 100 µM | 2.64 µM |  | 1.38 µM | 20.7 µM and > 100 µM | 2.03 µM | 13.9 µM and > 100 µM | 1.66 µM | 6.42 µM and > 51.6 µM | 2.76 µM | > 100 µM | 2.73 µM | 25.1 µM and > 100 µM | 2.76 µM | 12.2 µM and > 100 µM | 3.75 µM | 10.3 µM and > 100 µM | 1.95 µM |  |
| N#Cc1c(N/N=C/c2ccc(Cl)cc2Cl)nc(N)nc1N1CCCC1 | > 100 µM | > 100 µM | 25 µM | > 100 µM | 9.02 µM | 23.4 µM | > 100 µM | > 100 µM | 12.2 µM | 38.4 µM | 19.5 µM | > 100 µM | 27.5 µM | > 100 µM | 63.9 µM | > 100 µM | 54.3 µM | > 100 µM | 24.8 µM | > 100 µM |
| COC(=O)[C@@H](C)C[C@H](Cc1ccccc1)NC(=O)c1csc([C@@H](C[C@H](C(C)C)N(C)C(=O)[C@@H](NC(=O)[C@H]2CCCCN2C)C2CCCCC2)OC(C)=O)n1 | 0.00278 µM |  | 0.00512 µM and 0.0025 µM | 4.87 µM | 0.000533 µM and 0.0025 µM | > 25 µM | 0.000455 µM and 0.0025 µM | > 25 µM | 0.000435 µM and 0.0025 µM | 20.9 µM | 0.000424 µM and 0.0025 µM | > 25 µM | 0.00354 µM and 0.0025 µM | > 25 µM | 0.000321 µM and 0.0025 µM | > 25 µM | 0.0181 µM and 0.0025 µM | > 25 µM | 0.00115 µM and 0.0025 µM |  |
